Assay results: PubChem BioAssay AID651650 (Sanford-Burnham Center for Chemical Genomics, 2012)
Activity calls are given as the source filed them.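 The calls were made as follows: active = mean IC50 below 20 µM in each of the two panels, so potent in both; inactive = the rest.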

Molecular target: Neuropilin-1 (Homo sapiens) (UniProt O14786)
Test: NRP-1 b1b2 CendR peptide binding inhibitors, dose response, biochemical, FP and AlphaScreen panel (AID 651650)
Details: NRP-1 b1b2 / RPARPAR peptide binding, FP or AlphaScreen
[1] = AlphaScreen, run 1, individual panel run IC50
[2] = FP, run 1, individual panel run IC50
[3] = FP, run 2, individual panel run IC50

Neuropilin-1 (Homo sapiens), sequence (O14786 whole entry, looked up): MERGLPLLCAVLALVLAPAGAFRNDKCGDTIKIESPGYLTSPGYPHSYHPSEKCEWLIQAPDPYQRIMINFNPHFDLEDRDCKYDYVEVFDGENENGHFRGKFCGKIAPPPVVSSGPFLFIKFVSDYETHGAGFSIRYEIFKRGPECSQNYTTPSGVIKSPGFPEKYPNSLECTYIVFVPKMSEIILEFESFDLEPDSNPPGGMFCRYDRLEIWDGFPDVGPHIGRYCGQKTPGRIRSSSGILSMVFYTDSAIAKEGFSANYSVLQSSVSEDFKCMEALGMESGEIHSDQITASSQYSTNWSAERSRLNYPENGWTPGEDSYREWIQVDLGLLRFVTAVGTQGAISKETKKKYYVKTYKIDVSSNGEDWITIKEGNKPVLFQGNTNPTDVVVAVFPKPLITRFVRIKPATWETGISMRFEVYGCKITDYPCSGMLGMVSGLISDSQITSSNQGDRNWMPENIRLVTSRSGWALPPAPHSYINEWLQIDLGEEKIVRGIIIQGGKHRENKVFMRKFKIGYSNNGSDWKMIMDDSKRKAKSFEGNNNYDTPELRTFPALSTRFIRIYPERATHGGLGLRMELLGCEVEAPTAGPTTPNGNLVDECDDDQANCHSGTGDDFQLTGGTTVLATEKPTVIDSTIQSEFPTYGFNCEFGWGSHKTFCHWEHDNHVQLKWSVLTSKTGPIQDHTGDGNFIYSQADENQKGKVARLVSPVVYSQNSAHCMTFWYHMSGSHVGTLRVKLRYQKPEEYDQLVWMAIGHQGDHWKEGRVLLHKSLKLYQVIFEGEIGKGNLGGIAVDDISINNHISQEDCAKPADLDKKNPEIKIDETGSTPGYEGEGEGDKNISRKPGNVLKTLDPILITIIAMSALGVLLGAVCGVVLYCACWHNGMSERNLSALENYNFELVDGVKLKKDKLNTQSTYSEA

| Compound | IC50 (AlphaScreen, mean of runs) | IC50 [1] [µM] | IC50 (FP, mean of runs) | IC50 [2] [µM] | IC50 [3] [µM] |
| --- | --- | --- | --- | --- | --- |
| CCOC(=O)C1CCN(S(=O)(=O)c2ccc3c(c2)CCN3C(=O)C2CCC2)CC1 | > 100 µM (inactive) | > 100 | > 95 µM (inactive) | > 95 | > 95 |
| O=C(CCn1c(=O)c2cccn2c2cccnc21)NCc1cccc(Cl)c1 | > 100 µM (inactive) | > 100 | > 95 µM (inactive) | > 95 | > 95 |
| C=CCOc1ccc(C2/C(=C(\O)c3c(C)[nH]c(C(=O)OC)c3C)C(=O)C(=O)N2CCN(C)C)cc1 (stereo not given) | > 100 µM (inactive) | > 100 | > 95 µM (inactive) | > 95 | > 95 |
| COC(=O)C1=C(c2ccc(F)cc2OCc2ccccc2)C[C@@H]2CC[C@H]1N2C(=O)NCCNC(C)=O | 9.37 µM | 9.37 | > 95 µM (inactive) | > 95 | > 95 |
| O=C1CCN(Cc2ccccc2)S(=O)(=O)c2ccccc21 | > 100 µM (inactive) | > 100 | > 95 µM (inactive) | > 95 | > 95 |
| COc1ccc(C(=O)COC(=O)C(CCSC)NS(=O)(=O)c2ccc(Cl)cc2)cc1 (stereo not given) | > 100 µM (inactive) | > 100 | > 95 µM (inactive) | > 95 | > 95 |
| Cc1csc(NC(C)c2nc3cc(C(F)(F)F)ccc3n2CCOCCO)n1 (stereo not given) | > 100 µM (inactive) | > 100 | > 95 µM (inactive) | > 95 | > 95 |
| CCOc1cc(C(=O)NCCN2CCOCC2)cc(OCC)c1OCC | > 100 µM (inactive) | > 100 | > 95 µM (inactive) | > 95 | > 95 |
| CCN(CC)C(=O)c1cccc(-c2csc(C(NC(C)=O)c3cccc(OC)c3)n2)c1 (stereo not given) | > 100 µM (inactive) | > 100 | > 95 µM (inactive) | > 95 | > 95 |

The remaining lines, values ahead:

| IC50 (AlphaScreen, mean of runs) | IC50 [1] [µM] | IC50 (FP, mean of runs) | IC50 [2] [µM] | IC50 [3] [µM] | Compound |
| --- | --- | --- | --- | --- | --- |
| inactive | 46.4 | > 95 µM (inactive) | > 95 | > 95 | COC/C=C/C1=CC2=CC(=O)C(C)(OC(=O)c3cnc4ccccc4n3)C(=O)C2=CN1Cc1ccc(OC)cc1 (stereo not given) |
| > 100 µM (inactive) | > 100 | > 95 µM (inactive) | > 95 | > 95 | Cc1[nH]n(-c2ccccc2)c(=S)c1C=Nc1cccc([N+](=O)[O-])c1 |
| > 100 µM (inactive) | > 100 | > 95 µM (inactive) | > 95 | > 95 | O=C(CSc1nc(O)c(Cc2ccccc2)c(=O)n1-c1ccccc1)N1CCOCC1 |
| inactive | 63.7 | > 95 µM (inactive) | > 95 | > 95 | CCOC(=O)Cn1c(=O)n(Cc2ccco2)c(=O)c2ccc(C(=O)NC3CCCC3)cc21 |
| 6.29 µM | 6.29 | > 95 µM (inactive) | > 95 | > 95 | CCC1CCCCN1CCCNC(=O)C1CCCN(S(=O)(=O)N2CC(C)CC(C)C2)C1 (stereo not given) |
| > 100 µM (inactive) | > 100 | > 95 µM (inactive) | > 95 | > 95 | Cc1ccccc1NC(=O)c1cccc(NC(=O)CCC(=O)O)c1 |
| > 100 µM (inactive) | > 100 | > 95 µM (inactive) | > 95 | > 95 | CCCCOC(=O)c1ccc(NS(=O)(=O)c2cc(-c3nnnn3CC)ccc2OC)cc1 |
| inactive | 34.9 | inactive | 25.1 | 21.4 | CN1C(=O)c2oc3ccccc3c(=O)c2C1c1ccccn1 (stereo not given) |
| inactive | 31.7 | > 95 µM (inactive) | > 95 | > 95 | COc1ccc(Cn2c(C3CC3)nc3ccc(NC(=O)c4cccnc4)cc3c2=O)cc1 |
